Measurements published in PMC3681751, “Identification of a Novel Antimicrobial Peptide from Human Hepatitis B Virus Core Protein Arginine-Rich Domain (ARD)” (PLoS Pathogens, 2013).
Where two headings read alike, the source gives them in different places. Non-standard residues stand in square brackets, D forms with d. Residues, ends and D or L forms follow the SMILES beside them. No end group written: not given here. pS = N[C@@H](COP(=O)(O)O)C(=O)O

Legend:
E. coli (ATCC 25922) = assay type: cell-based, Escherichia coli
Experimental: (§1) The antimicrobial activities of HBc ARD peptides were tested using a number of bacterial strains from ATCC, including Pseudomonas aeruginosa Migula strain (ATCC 27853, ampicillin-resistant), Pseudomonas aeruginosa Migula strain (ATCC 9027, ampicillin-resistant), Klebsiella pneumoniae strain (ATCC 17593), Escherichia coli strain (ATCC 25922), Staphylococcus aureus subsp. strain (ATCC 25923, methicillin-resistant), Staphylococcus aureus subsp. strain (ATCC 29213, methicillin-resistant), Staphylococcus aureus subsp. strain (ATCC 19636, methicillinresistant), and Candida albicans strain (ATCC 10231).
(§2) All peptides were purchased from Yao-Hong Biotechnology Inc. (Taipei, Taiwan). Vendors provided data of peptide characterizations, including HPLC and Mass (data not shown). Antimicrobial activity was determined as described with some modifications as detailed below. Bacteria were grown overnight in Mueller–Hinton broth (Difco) at 37°C, and during the mid-logarithmic phase, bacteria were diluted to 10^6 CFU (colony formation unit)/ml in phosphate buffer (10 mM sodium phosphate and 50 mM sodium chloride, pH 7.2). Peptides were serially diluted in the same buffer. Fifty microliter (µl) of bacteria was mixed with fifty µl of peptides at varying concentrations followed by incubation at 37°C for 3 hours without shaking. At the end of incubation, bacteria were placed on Mueller-Hinton broth agar plates, and allowed growth at 37°C overnight for measurement of minimal bactericidal concentration (MBC). […] All peptides were tested in triplicate.

[1] = test system: P. aeruginosa (ATCC 27853); assay type: cell-based, Pseudomonas aeruginosa
Experimental: as §1, §2

[2] = test system: P. aeruginosa (ATCC 9027); assay type: cell-based, Pseudomonas aeruginosa
Experimental: as §1, §2

[3] = test system: K. pneumonia (ATCC 13884); assay type: cell-based, Klebsiella pneumoniae
S. aureus (ATCC 29213) = assay type: cell-based, Staphylococcus aureus
Experimental: as §1, §2

S. aureus (ATCC 19636) = assay type: cell-based, Staphylococcus aureus
Experimental: as §1, §2

S. aureus (ATCC 25923) = assay type: cell-based, Staphylococcus aureus
Experimental: as §1, §2

[4] = test system: tested bacteria and fungi; assay type: cell-based; conditions: for Activity against all of the tested bacteria and fungi: summary of Table 1; for MBC for bacteria: summary over the tested bacteria of Table 1
Experimental: as §1, §2

[5] = 3 h at 37°C in phosphate buffer pH 7.2, triplicate
[6] = ampicillin-resistant strain, 3 h at 37°C in phosphate buffer pH 7.2, triplicate
[7] = methicillin-resistant strain, 3 h at 37°C in phosphate buffer pH 7.2, triplicate
[8] = 3 h at 37°C in 10 mM sodium phosphate, 50 mM NaCl, pH 7.2, 10^6 CFU/ml, triplicate, ND = not detectable
[9] = ampicillin-resistant strain, 3 h at 37°C in 10 mM sodium phosphate, 50 mM NaCl, pH 7.2, 10^6 CFU/ml, triplicate, ND = not detectable
[10] = methicillin-resistant strain, 3 h at 37°C in 10 mM sodium phosphate, 50 mM NaCl, pH 7.2, 10^6 CFU/ml, triplicate, ND = not detectable

## CC(C)[C@H](NC(=O)[C@@H](NC(=O)[C@@H](N)[C@@H](C)O)C(C)C)C(=O)N[C@@H](CCCNC(=N)N)C(=O)N[C@@H](CCCNC(=N)N)C(=O)N[C@@H](CCCNC(=N)N)C(=O)NCC(=O)N[C@@H](CCCNC(=N)N)C(=O)N[C@@H](CO)C(=O)N1CCC[C@H]1C(=O)N[C@@H](CCCNC(=N)N)C(=O)N[C@@H](CCCNC(=N)N)C(=O)N[C@@H](CCCNC(=N)N)C(=O)N[C@H](C(=O)N1CCC[C@H]1C(=O)N[C@@H](CO)C(=O)N1CCC[C@H]1C(=O)N[C@@H](CCCNC(=N)N)C(=O)N[C@@H](CCCNC(=N)N)C(=O)N[C@@H](CCCNC(=N)N)C(=O)N[C@@H](CCCNC(=N)N)C(=O)N[C@@H](CO)C(=O)N[C@@H](CCC(N)=O)C(=O)N[C@@H](CO)C(=O)N1CCC[C@H]1C(=O)N[C@@H](CCCNC(=N)N)C(=O)N[C@@H](CCCNC(=N)N)C(=O)N[C@@H](CCCNC(=N)N)C(=O)N[C@@H](CCCNC(=N)N)C(=O)O)[C@@H](C)O [HBc147-175] (H-TVVRRRGRSPRRRTPSPRRRRSQSPRRRR-OH; N-terminus and C-terminus assumed)
E. coli (ATCC 25922); [5]
  Antimicrobial activity, MBC: 3.68 µg/mL
E. coli (ATCC 25922); ATCC 25922, 3 h, pH 7.2
  Antimicrobial activity, MBC: 1 µM
[1]; ATCC 27853, 3 h, pH 7.2
  Antimicrobial activity, MBC: 1 µM
[1]; [6]
  Antimicrobial activity, MBC: 3.68 µg/mL
[2]; ATCC 9027, 3 h, pH 7.2
  Antimicrobial activity, MBC: 0.5 µM
[2]; [6]
  Antimicrobial activity, MBC: 1.84 µg/mL
[3]; [5]
  Antimicrobial activity, MBC: 3.68 µg/mL
[3]; ATCC 13884, 3 h, pH 7.2
  Antimicrobial activity, MBC: 1 µM
S. aureus (ATCC 29213); ATCC 29213, 3 h, pH 7.2
  Antimicrobial activity, MBC: > 32 µM
S. aureus (ATCC 29213); [7]
  Antimicrobial activity, MBC: > 117.86 µg/mL
S. aureus (ATCC 19636); ATCC 19636, 3 h, pH 7.2
  Antimicrobial activity, MBC: > 32 µM
S. aureus (ATCC 19636); [7]
  Antimicrobial activity, MBC: > 117.86 µg/mL
S. aureus (ATCC 19636); text summary over the S. aureus strains of Table 1 (ATCC 19636, 25923, 29213)
  MBC against S. aureus: lost the activity
S. aureus (ATCC 25923); ATCC 25923, 3 h, pH 7.2
  Antimicrobial activity, MBC: > 32 µM
S. aureus (ATCC 25923); [7]
  Antimicrobial activity, MBC: > 117.86 µg/mL

## HBc147-159: HBc ARD peptide ARD I–II (TVVRRRGRSPRRR; UniProt P03147 147-159, looked up, fragment)
[4]
  Activity against all of the tested bacteria and fungi: no activity

## HBc155p: HBc147-183 phosphorylated on S155 (TVVRRRGRSPRRRTPSPRRRRSQSPRRRRSQSRESQC; phosphorylated S155; UniProt P03147 147-183, looked up, fragment)
E. coli (ATCC 25922); [8]
  Antimicrobial activity, MBC: 8 µM
E. coli (ATCC 25922); [5]
  Antimicrobial activity, MBC: 37.4 µg/mL
[1]; [9]
  Antimicrobial activity, MBC: 8 µM
[1]; [6]
  Antimicrobial activity, MBC: 37.4 µg/mL
[2]; [9]
  Antimicrobial activity, MBC: 8 µM
[2]; [6]
  Antimicrobial activity, MBC: 37.4 µg/mL
[3]; [8]
  Antimicrobial activity, MBC: 1 µM
[3]; [5]
  Antimicrobial activity, MBC: 4.67 µg/mL
S. aureus (ATCC 29213); [10]
  Antimicrobial activity, MBC: 8 µM
S. aureus (ATCC 29213); [7]
  Antimicrobial activity, MBC: 37.4 µg/mL
S. aureus (ATCC 19636); [10]
  Antimicrobial activity, MBC: 8 µM
S. aureus (ATCC 19636); [7]
  Antimicrobial activity, MBC: 37.4 µg/mL
S. aureus (ATCC 25923); [10]
  Antimicrobial activity, MBC: 8 µM
S. aureus (ATCC 25923); [7]
  Antimicrobial activity, MBC: 37.4 µg/mL
[4]
  MBC for bacteria: 8 µM

## HBc170p: HBc147-183 phosphorylated on S170 (TVVRRRGRSPRRRTPSPRRRRSQ[pS]PRRRRSQSRESQC; UniProt P03147 147-183, looked up, fragment)
E. coli (ATCC 25922); [8]
  Antimicrobial activity, MBC: ~32 µM
E. coli (ATCC 25922); [5]
  Antimicrobial activity, MBC: ~149.5 µg/mL
[1]; [9]
  Antimicrobial activity, MBC: ~32 µM
[1]; [6]
  Antimicrobial activity, MBC: ~149.5 µg/mL
[2]; [9]
  Antimicrobial activity, MBC: ~32 µM
[2]; [6]
  Antimicrobial activity, MBC: ~149.5 µg/mL
[3]; [8]
  Antimicrobial activity, MBC: 8 µM
[3]; [5]
  Antimicrobial activity, MBC: 37.4 µg/mL
S. aureus (ATCC 29213); [10]
  Antimicrobial activity, MBC: ~32 µM
S. aureus (ATCC 29213); [7]
  Antimicrobial activity, MBC: ~149.5 µg/mL
S. aureus (ATCC 19636); [10]
  Antimicrobial activity, MBC: ~32 µM
S. aureus (ATCC 19636); [7]
  Antimicrobial activity, MBC: ~149.5 µg/mL
S. aureus (ATCC 25923); [10]
  Antimicrobial activity, MBC: ~32 µM
S. aureus (ATCC 25923); [7]
  Antimicrobial activity, MBC: ~149.5 µg/mL
[4]
  MBC for bacteria: 32 µM

## HBc164-176: HBc ARD peptide ARD III–IV (RRRRSQSPRRRRS; UniProt P03147 164-176, looked up, fragment)
[4]
  Activity against all of the tested bacteria and fungi: no activity

## CC(C)[C@H](NC(=O)[C@@H](NC(=O)[C@@H](N)[C@@H](C)O)C(C)C)C(=O)N[C@@H](CCCNC(=N)N)C(=O)N[C@@H](CCCNC(=N)N)C(=O)N[C@@H](CCCNC(=N)N)C(=O)NCC(=O)N[C@@H](CCCNC(=N)N)C(=O)N[C@@H](CO)C(=O)N1CCC[C@H]1C(=O)N[C@@H](CCCNC(=N)N)C(=O)N[C@@H](CCCNC(=N)N)C(=O)N[C@@H](CCCNC(=N)N)C(=O)N[C@H](C(=O)N1CCC[C@H]1C(=O)N[C@@H](CO)C(=O)N1CCC[C@H]1C(=O)N[C@@H](CCCNC(=N)N)C(=O)N[C@@H](C)C(=O)N[C@@H](C)C(=O)N[C@@H](CCCNC(=N)N)C(=O)N[C@@H](CO)C(=O)N[C@@H](CCC(N)=O)C(=O)N[C@@H](CO)C(=O)N1CCC[C@H]1C(=O)N[C@@H](CCCNC(=N)N)C(=O)N[C@@H](C)C(=O)N[C@@H](C)C(=O)N[C@@H](CCCNC(=N)N)C(=O)N[C@@H](CO)C(=O)N[C@@H](CCC(N)=O)C(=O)N[C@@H](CO)C(=O)N[C@@H](CCCNC(=N)N)C(=O)N[C@@H](CCC(=O)O)C(=O)N[C@@H](CO)C(=O)N[C@@H](CCC(N)=O)C(=O)N[C@@H](CS)C(=O)O)[C@@H](C)O [HBc147-183(34AA)] (H-TVVRRRGRSPRRRTPSPRAARSQSPRAARSQSRESQC-OH; N-terminus and C-terminus assumed)
E. coli (ATCC 25922); [5]
  Antimicrobial activity, MBC: > 135.94 µg/mL
E. coli (ATCC 25922); ATCC 25922, 3 h, pH 7.2
  Antimicrobial activity, MBC: > 32 µM
[1]; ATCC 27853, 3 h, pH 7.2
  Antimicrobial activity, MBC: 32 µM
[1]; [6]
  Antimicrobial activity, MBC: 135.94 µg/mL
[2]; ATCC 9027, 3 h, pH 7.2
  Antimicrobial activity, MBC: 32 µM
[2]; [6]
  Antimicrobial activity, MBC: 135.94 µg/mL
[3]; [5]
  Antimicrobial activity, MBC: 135.94 µg/mL
[3]; ATCC 13884, 3 h, pH 7.2
  Antimicrobial activity, MBC: 32 µM
S. aureus (ATCC 29213); ATCC 29213, 3 h, pH 7.2
  Antimicrobial activity, MBC: > 32 µM
S. aureus (ATCC 29213); [7]
  Antimicrobial activity, MBC: > 135.94 µg/mL
S. aureus (ATCC 19636); ATCC 19636, 3 h, pH 7.2
  Antimicrobial activity, MBC: > 32 µM
S. aureus (ATCC 19636); [7]
  Antimicrobial activity, MBC: > 135.94 µg/mL
S. aureus (ATCC 25923); ATCC 25923, 3 h, pH 7.2
  Antimicrobial activity, MBC: > 32 µM
S. aureus (ATCC 25923); [7]
  Antimicrobial activity, MBC: > 135.94 µg/mL
[4]
  MBC for bacteria: significantly increased

## HBc176p: HBc147-183 phosphorylated on S176 (TVVRRRGRSPRRRTPSPRRRRSQSPRRRR[pS]QSRESQC; UniProt P03147 147-183, looked up, fragment)
E. coli (ATCC 25922); [8]
  Antimicrobial activity, MBC: 8 µM
E. coli (ATCC 25922); [5]
  Antimicrobial activity, MBC: 37.4 µg/mL
[1]; [9]
  Antimicrobial activity, MBC: 8 µM
[1]; [6]
  Antimicrobial activity, MBC: 37.4 µg/mL
[2]; [9]
  Antimicrobial activity, MBC: 8 µM
[2]; [6]
  Antimicrobial activity, MBC: 37.4 µg/mL
[3]; [8]
  Antimicrobial activity, MBC: 4 µM
[3]; [5]
  Antimicrobial activity, MBC: 18.68 µg/mL
S. aureus (ATCC 29213); [10]
  Antimicrobial activity, MBC: 8 µM
S. aureus (ATCC 29213); [7]
  Antimicrobial activity, MBC: 37.4 µg/mL
S. aureus (ATCC 19636); [10]
  Antimicrobial activity, MBC: 8 µM
S. aureus (ATCC 19636); [7]
  Antimicrobial activity, MBC: 37.4 µg/mL
S. aureus (ATCC 25923); [10]
  Antimicrobial activity, MBC: 8 µM
S. aureus (ATCC 25923); [7]
  Antimicrobial activity, MBC: 37.4 µg/mL
[4]
  MBC for bacteria: 8 µM

## HBc162-175: HBc ARD peptide ARD III–IV (SPRRRRSQSPRRRR; UniProt P03147 162-175, looked up, fragment)
[4]
  Activity against all of the tested bacteria and fungi: no activity
